Where a SMILES comes first, the peptide text is derived from it. Bridges are numbered along the chain shown (N, C = ends). Roman numbers before positions name the chains, in order. Primed or numbered codes have the meaning given here. Where no end group is shown, it is not given here. The star is where a group is joined. 5FAM = O=C1OC2(c3ccc(O)cc3Oc3cc(O)ccc32)c2ccc(C(=O)*)cc21; 5FAM″ = 5-carboxyfluorescein label
What was measured:
[1] = tested on: SU5416/hypoxia-induced PAH lesions; type: in vivo, rat
Procedure: Adult male Sprague-Dawley rats (approx. 200 g) were injected subcutaneously with SU5416 (20 mg/kg body weight; SUGEN Inc, South San Francisco, Calif.), which was suspended in carboxymethylcellulose (0.5% carboxymethylcellulose sodium, 0.9% sodium chloride, 0.4% polysorbate, 0.9% benzyl alcohol in deionized water). The rats were then exposed to chronic hypoxia in a hypobaric chamber (barometric pressure, 410 mm Hg: inspired O2 tension, 76 mm Hg) for 3 weeks followed by an additional 6 weeks of reexposure to normoxia. Rats were examined at 9 weeks after the injection of SU5416 when they develop severe occlusive pulmonary arterial lesions (Abe, K. et al. Formation of plexiform lesions in experimental severe pulmonary arterial hypertension. Circulation 121, 2747-54 (2010)).
The following peptides were labeled with 5-carboxyfluorescein (FAM) and used for the lung targeting studies: CAR, CARSKNKDC (SEQ ID NO:147); VCAM1, […] (SEQ ID NO:13); CG7C control CGGGGGGGC (SEQ ID NO:14); CAR mutant (CAR-M), CAQSNNKDC (SEQ ID NO:15). Peptides were dissolved in PBS at the concentrations of 0.5 mg/mL. Hypertensive rats were injected with peptide solution through tail vein (3.3 mg/kg). At 2 hours after the injection, rats were perfused with PBS containing 1% bovine serum albumin under the deep anesthesia and tissues were fixed by systemic perfusion with 10% buffered formalin. […]

[2] = tested on: mitochondrial membranes; conditions: at a concentration of 10 μM; cited from earlier work
[3] = tested on: monocrotaline-induced PAH lesions; experiment: Peptide homing to lungs in monocrotaline-induced PAH rats (anti-FITC immunohistochemistry); type: in vivo, rat; conditions: for accumulation of peptide in the PAH lungs: 2 hours after injection; for accumulation in the kidney: MCT-treated PAH rats and untreated healthy animals
Procedure: Monocrotaline (Sigma-Aldrich, St. Louis, Mo.) was dissolved in 0.3 M hydrochloride solution and neutralized with 0.3 M sodium hydroxide solution, and adjusted pH around 7.0. Adult male Sprague-Dawley rats (150-200 g, Harlan Laboratories, Indianapolis, Ind.) were administered with a single subcutaneous injection of monocrotaline solution at a dose of 60 mg/kg body weight, while control rats were administered with 0.9% saline (Bader, M. Rat models of cardiovascular diseases. Methods Mol Biol 597, 403-14 (2010)). Rats were randomly selected and studied for peptide targeting studies on 1, 3, 7, 14 or 21 days after the treatment of monocrotaline.
The following peptides were labeled with 5-carboxyfluorescein (FAM) and used for the lung targeting studies: CAR, CARSKNKDC (SEQ ID NO:147); VCAM1, CVHSPNKKCGGSK (SEQ ID NO:13); CG7C control CGGGGGGGC (SEQ ID NO:14); CAR mutant (CAR-M), CAQSNNKDC (SEQ ID NO:15). Peptides were dissolved in PBS at the concentrations of 0.5 mg/mL. Hypertensive rats were injected with peptide solution through tail vein (3.3 mg/kg). At 2 hours after the injection, rats were perfused with PBS containing 1% bovine serum albumin under the deep anesthesia and tissues were fixed by systemic perfusion with 10% buffered formalin. The organs were excised and fixed for additional 24 hours and processed for anti-fluorescein immunohistochemistry.
To determine the localization of the peptides, paraffin-embedded tissue sections were immunostained with rabbit anti-fluoroscein isothiocyanate (FITC) antibody (Invitrogen, Carlsbad, Calif.) followed by horseradish peroxidase-labeled anti-rabbit IgG secondary antibody. The peptide localization was then visualized by DAB. Sections were counter stained with hematoxylin to visualize the region of cells. An automated staining system, Discovery XT (Ventana, Tucson, Ariz.) was used for the staining. To examine the co-localization of the peptides with macrophages or alveolar type II cells, tissue sections were doubly stained with rabbit anti-FITC antibody and mouse anti-rat-CD68 antibody; EDI (Serotec, Raleigh, N.C.) or rabbit anti-Prosurfactant Protein C (proSP-C, Millipore, Temecula, Calif.), respectively. For FITC/proSP-C double staining, FITC staining was completed first. The tissues sections were then treated withcitrate buffer (pH 6.0) at 98° C. for 10 min before proceeding to proSP-C staining. Biotinylated species-specific secondary antibodies and alkaline phosphatase-labeled streptavidin (Vector Laboratories, Burlingame, Calif.) were used to visualize macrophages and alveolar type II cells with Permanent Red (Dako, Carpinteria, Calif.).
Images of stained slides were observed and captured with ECLIPSE 90i or 80i microscope with CCD camera DS-5M (Nikon Instruments, Melville, N.Y.). To quantify the targeting efficiency of the peptides to the lung, the immunostained sections were scanned by Aperio Scanscope XT and analyzed using ImageScope software (Aperio Technologies, Vista, Calif.). For the quantification of area and density of peptide staining, the Aperio Color Deconvolution tool was used to compare total peptide positive area and intensity of peptide staining in each animal. The thresholds were set empirically for strong, medium, and weak staining. The area of each level of staining was presented as percent of such area in the total cell area. The total stained area was normalized by hematoxylin stained area of same regions.
A rat model of monocrotaline (MCT)-induced pulmonary arterial hypertension was used for this study. Briefly, male Sprague-Dawley rats (150-200 g, Harlan Laboratories, IN) were administered with a single subcutaneous injection of monocrotaline at 60 mg/kg (Sigma-Aldrich, MO), while control rats administered 0.9% saline. Rats were randomly selected and studied for peptide distribution studies on 1, 3, 7, 14 or 21 days after the treatment of monocrotaline. […]

[4] = tested on: 4T1 tumors; experiment: In vivo tumor homing of FAM-labeled peptides (confocal imaging); conditions: 200 μL of 1 mM FAM-peptide i.v.
Procedure: Mice bearing orthotopic tumors generated with 4T1 mouse breast cells were intravenously injected with the 200 μL of 1 mM fluorescamine (FAM)-conjugated CAR peptide. The circulation time was 1 hour.
Confocal images of sections of the tumor and normal organs from mice injected with the 200 μL of 1 mM FAM-tCAR peptide. The circulation time was 2 hours.
Confocal images of sections of the tumor and normal organs from mice injected with the 200 μL of 1 mM FAM-ARSKNK peptide. The circulation time was 1 hour.
Confocal images of sections of the tumor and normal organs from mice injected with the 200 μL of 1 mM FAM-KNKSRAC-CARSKNK peptide (SEQ ID NO:4). The circulation time was 1 hour.

[5] = MCT-treated rats, FAM-peptide 3.3 mg/kg i.v.

Q: Which “accumulation of peptide in PAH lungs / PAH lesion” value ([1]; 9 weeks after SU5416, FAM-peptide 3.3 mg/kg i.v., 2 hours) does the source give for “CAQSNNKDC (cysteine pairing not given here; also: labelled with FAM, site not given here) [CAR-M]” here?
A: Its value is “only negligible signal”.

Q: What about the “detection in remodeled arteries from lung tissue” value ([1]; peptide 1 mg/300 g rat i.v. in hemodynamic study, anti-fluorescein staining) of the same compound?
A: The value was “not”.

Q: For “D(KLAKLAK)2 (KLAKLAKKLAKLAK; D-amino acids; membrane perturbing molecule)”, which mitochondrial swelling [2] is on record?
A: Its mitochondrial swelling is “marked mitochondrial swelling”.

Q: Which results are given for “CVHSPNKKCGGSK (CVHSPNKKCGGSK-{5FAM″}; cysteine pairing not given here) [VCAM-1 binding peptide]”?
A: accumulation of peptide in the PAH lungs [3, 5]: accumulated in the PAH lungs to a similar extent to CAR; accumulation of peptide in healthy normal lung ([3]; non-MCT-treated rats, FAM-peptide 3.3 mg/kg i.v., 2 hours): a fair amount

Q: For `C[C@@H]1NC(=O)[C@@H](NC(=O)c2ccc3c(c2)C(=O)OC32c3ccc(O)cc3Oc3cc(O)ccc32)CSSC[C@@H](C(=O)O)NC(=O)[C@H](CC(=O)O)NC(=O)[C@H](CCCCN)NC(=O)[C@H](CC(N)=O)NC(=O)[C@H](CCCCN)NC(=O)[C@H](CO)NC(=O)[C@H](CCCNC(=N)N)NC1=O` [CAR, CARSKNKDC] (5FAM-CARSKNKDC-OH; disulfide 1-9), which “accumulation in the kidney” value [3] is on record?
A: The value was “accumulation in the kidney was observed”.

Q: And the “accumulation in other organs” value ([3]; MCT-treated rats, organs other than lung, except kidney)?
A: The value was “absent or very weak”.

Q: For “CGGGGGGGC (5FAM-CGGGGGGGC; cysteine pairing not given here) [CG7C]”, which “accumulation in the kidney” value [3] is on record?
A: Its value is “also accumulated in the kidney”.

Q: And the “accumulation of peptide in the PAH lungs” value [3, 5]?
A: The value was “only very weak staining”.

Q: Which “accumulation in tumor tissue” value ([4]; circulation time 1 hour) does the source give for “KNKSRAC-CARSKNK (disulfide I:7-II:1 (inferred); not fully specified (N-terminus); also: FAM label, position not given here) [dimeric tCAR]” here?
A: The value was “less tumor accumulation than the monomeric tCAR peptide”.

Q: With ARSKNK (5FAM-ARSKNK) as the compound, how does the “accumulation in tumor tissue” value ([4]; circulation time 1 hour) read?
A: Its value is “Little ARSKNK peptide accumulated in the tumor tissue”.

Q: What about the “fluorescence in the heart” value ([4]; circulation time 1 hour) of the same compound?
A: Its value is “some fluorescence was detected in the heart”.

Q: With “CARSKNK (also: FAM label, position not given here) [tCAR]” as the compound, how does the “accumulation in normal tissues” value ([4]; circulation time 2 hours) read?
A: Its value is “not detectable accumulation”.

Q: And the “spreading within tumor tissue” value ([4]; circulation time 2 hours)?
A: Its value is “wider spreading within tumor tissue than CAR”.

From patent publication US20120034164A1, “TRUNCATED CAR PEPTIDES AND METHODS AND COMPOSITIONS USING TRUNCATED CAR PEPTIDES” (Sanford-Burnham Medical Research Institute California, priority 2010, published 2012)
